Results on nine compounds are retold here after patent US20260152527A1, “NOVEL MELANOCORTIN ANALOGS” (priority 2022, published 2026).

The structures appear in SMILES notation. Starred links: 1 amine or outer side, 2 acyl side, 3 side chain; linkers in the order of their positions; H or OH if unused. Positions of bridges follow the written chain, without caps; N, C: chain ends. Non-standard residues stand in square brackets, D forms with d. Residues, ends and D or L forms follow the SMILES beside them. Triazole bridges read from a SMILES are 1,4-linked. Lys(N3) = [N-]=[N+]=NCCCC[C@H](N)C(=O)O; Phe(4-NH2) = Nc1ccc(C[C@H](N)C(=O)O)cc1; hArg = N=C(N)NCCCC[C@H](N)C(=O)O; Aad = N[C@@H](CCCC(=O)O)C(=O)O; Suc = O=C(CCC(=O)[*:2])[*:1]; Nle = CCCC[C@H](N)C(=O)O; Pra = C#CC[C@H](N)C(=O)O; Dab = NCC[C@H](N)C(=O)O Bounds are passed on as bounds.

For the test, the target named is T1, human recombinant MC1R (Homo sapiens, UniProt Q01726).
T1 construct: host or cells: CHO-K1
As to the kind of experiment: cyclic AMP (cAMP) functional assay, MC1R stable cell line (CHO-K1).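 Also: cells with test compound for 60 min at room temperature in buffer containing IBMX, then cAMP quantified by Eu-cAMP tracer and ULight anti-cAMP detection.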 In kind it is cell-based. Conditions: cAMP functional assay.

T1 sequence (Q01726 whole entry): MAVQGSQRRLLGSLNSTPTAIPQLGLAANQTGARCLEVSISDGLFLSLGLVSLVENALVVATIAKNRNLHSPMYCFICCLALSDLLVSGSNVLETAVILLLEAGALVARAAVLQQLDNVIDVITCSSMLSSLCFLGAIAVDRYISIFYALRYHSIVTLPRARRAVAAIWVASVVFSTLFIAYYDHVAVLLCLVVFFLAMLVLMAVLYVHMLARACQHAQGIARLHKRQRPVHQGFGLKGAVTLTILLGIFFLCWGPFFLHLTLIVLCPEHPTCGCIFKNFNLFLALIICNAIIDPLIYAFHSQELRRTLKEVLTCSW
Description: The cyclic AMP (cAMP) functional assay was performed on a human recombinant MC1R stable cell line (CHO-K1, GenScript). The cells were cultured at 37° C. and 5% CO2 with culture medium (90% Ham's F-12K (Kaighn's)+10% FBS+400 μg/mL G418). […] Then, 100 nL of compounds were transferred to the assay plate by the Echo machine. Cells were washed with PBS and then detached by incubation with 0.05% (w/v) Trypsin EDTA at 37° C. for 2 to 5 mins. Cells were collected with stimulation buffer (1×HBSS with 5 mM HEPES+0.2 mM IBMX+0.1% BSA) and 10 ul of cells (the density of 2,500 cells/well) solution was transferred to assay plate, centrifuged at 600 rpm for 3 min and then incubated with compounds at room temperature for 60 min. After that, 5 μL 4×Eu-cAMP tracer solution and 5 μL 4×ULight™-anti-cAMP solution was added into the cells, centrifuged at 600 rpm for 3 min and incubated for 60 min. The cAMP signal was detected with Envision® Multimode Plate Reader (PerkinElmer).

For orientation: IC50 means the midpoint of a concentration-inhibition curve. With `CCCC[C@H](NC(C)=O)C(=O)N[C@H]1CSCc2cccc(c2)CSC[C@@H](C(=O)N[C@@H](Cc2c[nH]c3ccccc23)C(N)=O)NC(=O)[C@H](CCCNC(=N)N)NC(=O)[C@@H](Cc2ccccc2)NC(=O)[C@H](Cc2c[nH]cn2)NC1=O` [KR-032, Ac-Nle-cyc(Cys-His-DPhe-Arg-Cys)-Trp, L: m-xylene-NH2], the half-inhibitory concentration (IC50) came out at 0.081 nM.

`CSCC[C@H](NC(=O)[C@H](CO)NC(=O)[C@H](Cc1ccc(O)cc1)NC(=O)[C@H](CO)NC(C)=O)C(=O)N[C@@H](CCC(=O)O)C(=O)N[C@@H](Cc1c[nH]cn1)C(=O)N[C@@H](Cc1ccccc1)C(=O)N[C@@H](CCCNC(=N)N)C(=O)N[C@@H](Cc1c[nH]c2ccccc12)C(=O)NCC(=O)N[C@@H](CCCCN)C(N)=O` [KR-006]: the IC50 came to 0.11 nM.

`CCCC[C@@H]1NC(=O)CSC[C@@H](C(N)=O)NC(=O)[C@H](CCCCN)NC(=O)CNC(=O)[C@H](Cc2c[nH]c3ccccc23)NC(=O)[C@H](CCCNC(=N)N)NC(=O)[C@H](Cc2ccccc2)NC(=O)[C@H](Cc2c[nH]cn2)NC(=O)[C@H](CCC(=O)O)NC1=O` [KR-036] ({CH2CO}-[Nle]EHFRWGKC-NH2; thioether N-9): the IC50 was determined as 0.88 nM.

For `CCCC[C@H](NC(C)=O)C(=O)N[C@H]1CCCCn2cc(nn2)C[C@@H](C(=O)N[C@@H](CCCCN)C(N)=O)NC(=O)[C@H](Cc2c[nH]c3ccccc23)NC(=O)[C@H](CCCCNC(=N)N)NC(=O)[C@@H](Cc2ccccc2)NC(=O)[C@H](Cc2c[nH]cn2)NC1=O` [KR-054, Ac-Nle-[Lys(N3)-His-DPhe-HArg-Trp-Pra]-Lys-NH2] (Ac-[Nle][Lys(N3)]H[dF][hArg]W[Pra]K-NH2; triazole 2-7), the half-inhibitory concentration (IC50) worked out at 0.093 nM. To `CCCC[C@H](NC(C)=O)C(=O)N[C@H]1CCNC(=O)CCC(=O)NCC[C@@H](C(N)=O)NC(=O)[C@H](Cc2c[nH]c3ccccc23)NC(=O)[C@H](CCCNC(=N)N)NC(=O)[C@@H](Cc2ccccc2)NC(=O)[C@H](Cc2c[nH]cn2)NC1=O` [KR-041, Ac-Nle-[Dab-His-DPhe-Arg-Trp-Dab] Linker: succinic acid-NH2] (Ac-[Nle][Dab]H[dF]RW[Dab]-NH2; linker 2-7 via Suc (inferred)) belongs 0.04 nM; to `CCCC[C@H](NC(C)=O)C(=O)N[C@H]1CCn2cc(nn2)COCc2cn(nn2)CC[C@@H](C(N)=O)NC(=O)[C@H](Cc2c[nH]c3ccccc23)NC(=O)[C@H](CCCNC(=N)N)NC(=O)[C@@H](Cc2ccccc2)NC(=O)[C@H](Cc2c[nH]cn2)NC1=O` [KR-042, Ac-Nle-[Dab(N3)-His-DPhe-Arg-Trp-Dab(N3)] linkr: 3,3′-Oxybis[1-propyne]-NH2], 0.16 nM. To `CCCC[C@H](NC(C)=O)C(=O)N[C@H]1CCCCn2cc(nn2)C[C@@H](C(=O)N[C@@H](CCCC(N)=O)C(N)=O)NC(=O)[C@H](Cc2c[nH]c3ccccc23)NC(=O)[C@H](CCCNC(=N)N)NC(=O)[C@@H](Cc2ccccc2)NC(=O)[C@H](Cc2c[nH]cn2)NC1=O` [KR-057, Ac-Nle-[Lys(N3)-His-DPhe-Arg-Trp-Pra]-Hgln-NH2] (Ac-[Nle][Lys(N3)]H[dF]RW[Pra][Aad](NH2)-NH2; triazole 2-7) belongs 0.024 nM; to `CSCC[C@H](NC(=O)[C@H](CO)NC(=O)[C@H](Cc1ccc(O)cc1)NC(=O)[C@H](CO)NC(C)=O)C(=O)N[C@@H](CCC(=O)O)C(=O)N[C@@H](Cc1c[nH]cn1)C(=O)N[C@@H](Cc1ccccc1)C(=O)N[C@@H](CCCNC(=N)N)C(=O)N(C)[C@@H](Cc1c[nH]c2ccccc12)C(=O)NCC(=O)N[C@@H](CCCCN)C(=O)N1CCC[C@H]1C(=O)N[C@H](C(N)=O)C(C)C` [KR-024], 0.88 nM. In the case of `CCCC[C@H](NC(C)=O)C(=O)N[C@H]1CCCCn2cc(nn2)C[C@@H](C(N)=O)NC(=O)[C@H](Cc2c[nH]c3ccccc23)NC(=O)[C@H](CCCNC(=N)N)NC(=O)[C@@H](Cc2ccccc2)NC(=O)[C@H](Cc2ccc(N)cc2)NC1=O` [KR-047, Ac-Nle-[Lys(N3)-Phe(4-NH2)-DPhe-Arg-Trp-Pra]-NH2] (Ac-[Nle][Lys(N3)][Phe(4-NH2)][dF]RW[Pra]-NH2; triazole 2-7) it was above 50 nM.
